Results: patent publication US20250314644A1, “METHODS COMPRISING DETECTION OF ADP-HEPTOSE” (CHILDREN'S HOSPITAL MEDICAL CENTER, priority 2023, published 2025)

Columns and labels:
Format in all cases: in vivo, mouse
Dnmt3a^−/− HSCs = test: DSS gut injury in low-dose irradiated chimeric mice, with or without antibiotics pre-treatment
From the text: To model pre-leukemic clonal hematopoiesis, chimeric mice were generated as aas follows. Briefly, mixture of 1×10^6 whole bone marrow cells (WBM) were obtained from Poly (I:C) treated wild-type (Dnmt3a^+/+; MxCre^+, called Dnmt3a^WT) or mutant mice (Dnmt3a^f/f; MxCre^+, called Dnmt3a^KO) or double mutant mice (Dnmt3a^f/f; MxCre^+; Alpk1^KO, called Dnmt3a^KO; Alpk1^KO) (CD45.2^+), and transplanted into low-dose (2.5 Gy) irradiated recipient mice (CD45.1^+; 6-10 weeks of age). 8 weeks post-transplant, chimeric mice were treated with either water (H2O) or DSS (2.5%) for 1 week, and allowed to recover for 1 more week on water after which flow cytometry was performed on BM. In separate experiment, chimeric mice were pre-treated with broad spectrum antibiotics (ABX) for 4 weeks, and then subjected to DSS for 1 week after which flow cytometry performed on BM. In a separate set of experiment, chimeric mice were treated with either H2O or ADP-heptose (0.5 mg/kg) for 2 weeks, and flow cytometry performed after 2 more weeks on BM. […]
Mice were treated with 2.5% DSS (wt/vol) (MW: 36,000-50,000 Da, Cat No. 216011090, MP Biomedicals) in autoclaved drinking water to induce gut injury-associated colitis as mentioned before. […] Mice were monitored daily for weight loss, stool consistency, and the presence of frank blood in the stool. […]

[1] = UHPLC-MS/MS measurement of ADP-heptose in plasma and BM; conditions: DSS-induced intestinal barrier dysfunction in mice
Method: To measure ADP-heptose, lysates were prepared as described previously. (Gaudet, R. G., et al. INNATE IMMUNITY. Cytosolic detection of the bacterial metabolite HBP activates TIFA-dependent innate immunity. Science 348, 1251-1255 (2015).) Briefly, bacterial culture suspensions of various mouse tissues and human plasma samples were first spun at 4000 g for 5 minutes. Next, pellets were suspended in 1 ml of sterile water. Bacterial cells were then lysed by heating at 95° C. for 15 minutes. Next, lysates were centrifuged at 4000 g for 3 minutes and supernatants filtered through a 0.20 μm syringe filter using 1 ml syringe and needle. Finally, lysates were stored at −80° C. until further processing for Mass Spectrometry. Following a previously established protocol, lysates were prepared. (Pfannkuch, L., et al. ADP heptose, a novel pathogen-associated molecular pattern identified in Helicobacter pylori. FASEB J 33, 9087-9099 (2019).) Briefly, 500 μl of the cleared bacterial lysate was thawed from −80° C. and extracted by addition of 1 ml chloroform/methanol (v:v 2:1) and vortexed and centrifuged (5 min, 10,000 g). […]
The concentration of ADP-heptose was determined using an ultrahigh-performance liquid chromatography-electrospray ionization-mass spectrometry (UHPLC-ESI-MS/MS) method by modifying our previously described protocol. […]

[2] = Quantification of bacterial DNA (16S) in blood by real-time PCR; conditions: DSS-induced intestinal barrier dysfunction in mice
From the text: The previously described protocol to examine bacterial translocation into blood was used. (Luo, Z., et al. CRIg(+) Macrophages Prevent Gut Microbial DNA-Containing Extracellular Vesicle-Induced Tissue Inflammation and Insulin Resistance. Gastroenterology 160, 863-874 (2021); Tabuchi, Y., et al. Oral dextran sulfate sodium administration induces peripheral spondyloarthritis features in SKG mice accompanied by intestinal bacterial translocation and systemic Th1 and Th17 cell activation. Arthritis Res Ther 24, 176 (2022)) Whole blood was collected by cheek bleeding in sterile BD Microtainer Capillary Blood Collector and Microgard Closure tubes (Cat No. 13-680-62, Fisher Scientific) on ice from each mouse using Goldenrod Animal Lancets 4 mm (Cat No. NC9922361, Braintree Scientific), and genomic DNA extracted using DNeasy Blood & Tissue Kit (Cat No. 69504, Qiagen). qPCR was performed using Femto Bacterial DNA Quantification Kit (Cat. No. E2006, Zymo Research) according to the manufacturers' instructions. Samples with a Ct value more than 35 cycles or undetectable were counted as 0 μg/ml.

dextran sulfate sodium [DSS]
expansion of Dnmt3a^−/− HSCs in the BM (Dnmt3a^−/− HSCs): significant expansion | ADP-heptose in BM and PB plasma by mass spectrometry [1]: circulating ADP-heptose in the BM and PB plasma | copies of 16S rRNA in the blood [2]: increased copies
